Reference: US9649305B2, “PFKFB3 inhibitor and methods of use as an anti-cancer therapeutic” (ADVANCED CANCER THERAPEUTICS, LLC, priority 2012, dated 2017)
Like-named read-outs stand apart in the source and are kept apart here.

Assays:
[1] = In vitro stability in human liver microsomes; format: in vitro ADME
Jurkat cells = assay: Inhibition of 14C-2-deoxyglucose uptake; format: cell-based; details: Homo sapiens, Jurkat cells
Protocol: Inhibition of PFKFB3 results in inhibiting glycolysis. Several feedback or feedforward activation and inhibition mechanisms exist so that, by a feedback mechanism, inhibiting the activity of PFKFB3 might inhibit glucose uptake by cells. An assay was developed to determine if there was inhibition of glucose uptake following exposure PFK-158. Briefly, Jurkat cells were plated at 10^5 cells/mL in RPMI 1640 supplemented with 10% fetal bovine serum and 50 μg/mL gentamicin sulfate. Cells were immediately treated with vehicle or 0.5 μmol/L of PFK-158 for 3 hours and subsequently placed in glucose-free RPMI 1640 for 30 min. ^14C-2-deoxyglucose (0.25 μCi/mL; Perkin Elmer) was added for an additional 60 min and cells were then washed three times with ice-cold RPMI 1640 containing no glucose. Cell lysates were collected in 500 μL of 0.1% SDS and scintillation counts (counts/min) were measured on 400 μL of lysate. Counts were normalized to protein concentration.

[2] = IV pharmacokinetics in mice; format: in vivo, Balbc mice
Protocol: (§1) The pharmacokinetic (PK) parameters for PFK-158 were determined in mice following IV (intravenous) administration in mice and rats. A typical study design includes six animals (male or female) 7 to 8 weeks old.
(§2) Mouse pharmacokinetic properties using a dose of 5 mg/kg were determined after IV administration using a 10% DMSO, 10% PEG-200, 10% Solutol:ethanol (1:1) and 70% D5W solution or any other pharmaceutically acceptable parenteral formulation. Blood samples were collected at different intervals. Plasma samples were extracted and analyzed using an LC-MS/MS method. Similar protocols were used for the rat PK study (Sprague Dawley rats; 30 mg/kg), although the formulation for rat PK studies differed (30% Captisol, pH 3.0 solution). Time vs. plasma concentration plots were prepared as shown in FIGS. 4 (BalbC mice) and 5 (SD rats), respectively. Pharmacokinetic parameters were calculated and are provided below in Table 7.

PFKFB3 = PFKFB3 (Homo sapiens, UniProt Q16875); assay: Enzymatic activity of recombinant PFKFB3, ADP-Glo assay; format: biochemical
Protocol: The inducible bifunctional 6-Phosphofructo-2-kinase/fructose2,6-biphosphatase enzyme (PFKFB3) was expressed and purified in order to determine if PFK-158 inhibits enzymatic activity. PFKFB3 was prepared by expression in E. coli and purified by GST column and column chromatography. […] The recombinant protein was pure and active as determined by the results of a commercially available kinase activity assay (ADP-Glo™, Promega, Madison, Wis.).

[3] = IV pharmacokinetics in rats, 30 mg/kg; format: in vivo; details: Table 7, Rat (30 mg/kg), Sprague Dawley rats
Protocol: as §1, §2

[4] = Toxicology study in dogs at 40 mg/kg; format: in vivo, beagle dogs
Protocol: In another embodiment, the potential toxicity of PFK-158 (in the form of its dication) was investigated at 40 mg/kg in male and female beagle dogs using a 3 day a week for a total of three weeks dosing regimen. The potential toxicity of PFK-158 was investigated by monitoring all clinical signs during the in-life phase, taking blood and urine samples for full clinical chemistry panels and urinalysis, monitoring body weights and food intake. Gross necropsy and complete histopathology were performed at the time of termination.

[5] = Photoisomerization in formulation; format: physicochemical; details: phospho-lipidic aqueous emulsion or emulsifier-free, solvent-free aqueous solution
Excerpt: Further, the solubility properties of PFK-158 are such that, if required, the compound can be administered using either a phospho-lipidic aqueous based emulsion, or in an emulsifier-free, solvent-free aqueous based solution.

LLC tumor = assay: Lewis lung carcinoma (LLC) model; format: in vivo; details: IP 60 mg/kg on days 1, 3, 5, 7, 9, 11, 13
Excerpt: Treatment began following randomization.

[6] = Chemical stability of Cremophor based IV formulation; format: physicochemical; details: about 1 mg/ml in Cremophor:ethyl alcohol 1:1 diluted 1:9 in saline, WFI, lactate Ringer's or D5W
Protocol: PFK-158 and its salts can be prepared in a Cremophor® based formulation. In one embodiment, 10 mg PFK-158 are dissolved in 1 ml of 1:1 v:v Cremophor®:ethyl alcohol solution using vigorous stirring. Once the compound is effectively dissolved, the solution is filtered and then added to saline, water for injection, lactate Ringer's, or D5W in a 1:9 ratio, resulting in a clear solution, free from particles, with a PFK-158 concentration of about 1 mg/ml. The composition is chemically stable for at least 6 hours and can be administered to mammals, including humans.

[7] = Maximum tolerated dose study; format: in vivo; details: 3 days on/3 days off schedule
Protocol: Several maximum tolerated dose studies and toxicology studies were performed and the results indicated PFK-158 is safer than PFK-015. Studies were performed in C57/B16 mice and SD rats.

[8] = Table 7, Mouse (5 mg/kg), IV, Balbc mice
[9] = mouse, plasma, 5 mg/kg, Table 2, Balbc mice, IV dosing

Chain of PFKFB3 (Q16875 whole entry): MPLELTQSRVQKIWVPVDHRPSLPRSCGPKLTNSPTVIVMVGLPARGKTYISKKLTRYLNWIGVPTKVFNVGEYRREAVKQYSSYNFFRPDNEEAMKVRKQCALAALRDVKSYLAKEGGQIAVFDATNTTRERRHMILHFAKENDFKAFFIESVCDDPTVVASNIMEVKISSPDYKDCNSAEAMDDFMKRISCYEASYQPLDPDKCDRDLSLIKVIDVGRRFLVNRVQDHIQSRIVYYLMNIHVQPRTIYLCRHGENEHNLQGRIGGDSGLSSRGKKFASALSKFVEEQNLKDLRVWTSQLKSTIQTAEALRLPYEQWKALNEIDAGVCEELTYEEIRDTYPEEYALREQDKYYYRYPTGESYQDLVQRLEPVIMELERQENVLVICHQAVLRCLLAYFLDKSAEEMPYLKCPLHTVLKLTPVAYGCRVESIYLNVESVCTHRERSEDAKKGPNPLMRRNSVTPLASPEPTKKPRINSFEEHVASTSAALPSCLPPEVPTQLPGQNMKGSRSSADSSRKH

In the case of `O=C(/C=C/c1ccc2ccc(C(F)(F)F)cc2n1)c1ccncc1` [PFK-158, (E)-1-(pyridyn-4-yl)-3-(7-(trifluoromethyl)quinolin-2-yl)-prop-2-en-1-one], the “Percent metabolized after 1 hr” value [1] is reported as 37%, the IC50 (Jurkat cells; FIG. 2, 14C-2-deoxyglucose, read-out: IC50, inhibition of glucose uptake) is reported as 847 ± 150 nM and the IC50 (Jurkat cells; Table 1, read-out: IC50, Inhibition of 2 deoxyglucose uptake) is reported as 800 ± 100 nM. For the same compound, the IC50 (Jurkat cells; Table 6, read-out: IC50 Glucose Uptake) was 847 ± 150 nM, the “AUC(0-inf)” value [2, 8] was 3,235 ng · h/ml and the Cmax [2, 8] was 4,176 ng/mL. It also gave a T1/2b [2, 8] of 10.4 h, an AUC(0-inf) ([2]; Table 9, BalbC mice, IV dosing) of 3235 ng·h/mL and a T1/2 ([2]; Table 9, BalbC mice, IV dosing) of 10.5 h. For the same compound, the clearance [2, 9] was 26 mL/min/kg, the half-life [2, 9] was 10.5 h and the AUC(0-inf) ([2]; mouse, plasma, 5 mg/kg, Table 2, Balbc mice, IV dosing, read-out: AUC0-inf) was 3240 ng·h/mL. It also gave a Cmax ([2]; mouse, plasma, 5 mg/kg, Table 2, Balbc mice, IV dosing, read-out: Cmax) of 4180 ng/mL, an IC50 (PFKFB3; FIG. 1, read-out: IC50, inhibition of recombinant PFKFB3 (ADP-Glo)) of 137 ± 15 nM and an IC50 (PFKFB3; Table 1, read-out: IC50, Enzymatic activity of PFKFB3, ADP Glo Assay) of 137 ± 15 nM. The IC50 (PFKFB3; Table 6, read-out: IC50 Rec PFKFB3) was 137 ± 15 nM, the IC50 (PFKFB3; Table 8, read-out: IC50, Enzymatic activity of PFKFB3, ADP-Glo Assay) was 137 ± 15 nM and the T1/2b [3] was 8.6 h. The AUC(0-inf) ([3]; plasma) was 3300 ng·h/mL, the Cmax ([3]; plasma) was 18900 ng/mL and the signs of toxicity ([4]; beagle dogs, 40 mg/kg three times a week for three weeks) was “no signs of toxicity”. The NOAEL at 3 weeks ([4]; both sexes, beagle, dog, in vivo) was 40 mg/kg, the “Human Equivalent Dose (HED) of the NOAEL” value ([4]; dog, in vivo) was 800 mg/m^2 and the photoisomerization in solution [5] was “does not, in the formulation mentioned above, undergo a rapid photoisomerization”. For the same compound, the “body weight loss (tolerability)” value (LLC tumor) was “no noticeable body weight loss”, the “chemical stability of composition” value [6] was “at least 6 hours” and the MTD ([7]; C57/B16, mouse, in vivo, read-out: MTD) was over 45 mg/kg. For the same compound, the MTD ([7]; Table 4, body weight loss superior to 10% or death) was “Not reached, >45 mg/kg”.
